{
  "source": "patent US10258557B2",
  "about": "“Peptide for stimulating melanogenesis” (priority 2017, dated 2019)",
  "system": "B16F10 cells",
  "assay": "MTT assay, cell viability",
  "assay_type": "cell-based, mouse",
  "conditions": "different concentrations, 24, 48 or 72 hours",
  "protocol": "B16F10 is a melanoma cell line isolated from mouse skin (American Type Culture Collection, USA) and was cultured in phenol red-free Dulbecco's Modified Eagle Medium (DMEM) containing 10% (v/v) FBS and penicillin/streptomycin (100 IU/[…]) in 5% CO2 at 37° C.\nThe cells (2×10^3) in 100 μl complete DMEM were seeded in 96-well plates and treated with the peptide of SEQ ID NO: 1 at different concentrations. The cells treated with ddH2O was used as controls. Ten microliters of 5 mg/ml 3-(4,5-dimethyl-2-thiazolyl)-2,5-diphenyl-2H-tetrazolium bromide solution (MTT; Sigma) was added to each well and incubated at 37° C. for 3 hours. After that, 100 μl 10% SDS in 0.01N HCl was added to dissolve the MTT formazan crystals. The resultant optical density was measured by spectrophotometry at dual wavelengths, 550 and 630 nm.",
  "note": "Where a SMILES comes first, the peptide text is derived from it.",
  "data": [
    {"smiles": "C[C@H](NC(=O)[C@H](CO)NC(=O)[C@@H](N)CC(N)=O)C(=O)N[C@H](C(=O)N[C@@H](CCC(=O)O)C(=O)N[C@@H](CCCNC(=N)N)C(=O)N[C@@H](CCC(=O)O)C(=O)O)[C@@H](C)O", "note": "[peptide of SEQ ID NO: 1, AsnSerAlaThrGluArgGlu] (H-NSATERE-OH)", "values": [
      {"measurement": "cell viability (MTT)", "setting": "FIG. 3", "value": "did not significantly affect the viability"},
      {"measurement": "cell viability (MTT)", "setting": "FIG. 3, listed as peptide having the amino acid sequence of SEQ ID NO: 1", "value": "did not significantly affect viability"}
    ]}
  ]
}
